Data on one molecule can be found in patent publication US20080103209A1, “Compounds And Methods For Treating Non-Inflammatory Pain Using Ppar Alpha Agonists” (The Regents of The University of California, priority 2004, published 2008).

For one test, the target named is T1, human PPARα (Homo sapiens, UniProt Q07869).
T1 construct: expressed in transfected cells
T1 sequence (Q07869 239-466 limits assumed): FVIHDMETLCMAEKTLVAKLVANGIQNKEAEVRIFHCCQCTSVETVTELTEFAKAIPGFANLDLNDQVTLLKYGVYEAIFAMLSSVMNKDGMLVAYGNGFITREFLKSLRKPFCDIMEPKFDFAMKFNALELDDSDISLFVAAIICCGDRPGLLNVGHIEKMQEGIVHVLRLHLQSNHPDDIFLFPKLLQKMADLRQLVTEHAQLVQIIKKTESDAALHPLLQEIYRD
The experiment in a line: PPARα transactivation assay (HeLa cells, luciferase reporter). Type of test: cell-based. Particulars: HeLa cells, n=12; read-out: half-maximal effective concentration (EC50), PPARα activation. Here is the method: (§1) Transactivation assays were performed as previously described [Fu et al., Nature 425:90-93 (2003)].
PPAR-α transactivation. Plasmids were generated which contained the ligand-binding domain of human PPAR-α (nucleotides 499-1,407) fused to the DNA-binding domain of yeast GAL4 under control of the human cytomegalovirus promoter and to a neomycin resistance gene to provide stable selection with 0.2 mg-ml-1 G418 (Calbiochem). We cultured HeLa cells in Dulbecco's-modified Eagles's medium (DMEM) supplemented with fetal bovine serum (10%), transfected them with Fugene 6 ([…], Roche) containing the pFR-luc plasmid ([…], Stratagene) and, 18 h later, replaced the media with DMEM containing hygromycin (0.1 mg ml−1, Calbiochem). […] Cells were maintained in DMEM containing hygromycin and G418. For transactivation assays, we seeded cells in 6-well plates and incubated them for 7 h in DMEM containing hygromycin and G418, plus appropriate concentrations of test compounds. We used a dual-luciferase reporter assay system (Promega) and an MLX Microtiter® plate luminometer (Dynex) to determine luciferase activity in cell lysates.

In a further test the test system is mice. Kind of test: Carrageenan-evoked paw edema (acute). Type of test: in vivo, mouse. Conditions: wild-type C57Bl6J; PEA 10 mg-kg^−1 i.p., WY-14643 20 mg-kg^−1 i.p. The source says: In addition to rapid-onset analgesia, PEA also exerts prolonged anti-inflammatory effects [Benvenuti, et al., Boll Soc It Biol Sper 44, 809-813 (1968); Lambert, et al., Curr Med. Chem. 9, 663-74 (2002)], which are associated with the down-regulation of pro-inflammatory proteins such as nitric oxide synthase (NOS) [Costa, et al., Br J Pharmacol 137, 413-20. (2002)]. Two models of acute inflammation were used to examine whether such effects are mediated through PPARα. First, paw edema was induced in C57B16J wild-type and PPARα^−/− mice by local injection of the irritant, carrageenan [Cirino, et al., Eur J Pharmacol 166, 505-10 (1989)]. […] Next, ear edema was produced in CD1 mice by topical administration of the phorbol ester, 12-O-tetradecanoylphorbol-13-acetate (TPA) [Sheu, et al., J Invest Dermatol., 94-101. (2002)]. […] In a parallel set of experiments, the effects of PEA (20 μg) on TPA-induced edema were tested in C57B16J wild-type and PPARα^−/− mice. […] Together, these findings indicate that PEA reduces acute nociception and inflammation through activation of PPARα.
An inflammatory response was initiated by injecting 2% (w v^−1, 20 μl) λ-carrageenan in sterile saline into mice hind paws using a 27-gauge needle. Drugs were administered 30 minutes before carrageenan (i.p.). Paw edema was measured using a plethysmometer (Ugo Basile, Italy).

The next test deals with T2, PPARγ (Homo sapiens, UniProt P37231).
T2 construct: expressed in transfected cells
T2 sequence (P37231 1-505): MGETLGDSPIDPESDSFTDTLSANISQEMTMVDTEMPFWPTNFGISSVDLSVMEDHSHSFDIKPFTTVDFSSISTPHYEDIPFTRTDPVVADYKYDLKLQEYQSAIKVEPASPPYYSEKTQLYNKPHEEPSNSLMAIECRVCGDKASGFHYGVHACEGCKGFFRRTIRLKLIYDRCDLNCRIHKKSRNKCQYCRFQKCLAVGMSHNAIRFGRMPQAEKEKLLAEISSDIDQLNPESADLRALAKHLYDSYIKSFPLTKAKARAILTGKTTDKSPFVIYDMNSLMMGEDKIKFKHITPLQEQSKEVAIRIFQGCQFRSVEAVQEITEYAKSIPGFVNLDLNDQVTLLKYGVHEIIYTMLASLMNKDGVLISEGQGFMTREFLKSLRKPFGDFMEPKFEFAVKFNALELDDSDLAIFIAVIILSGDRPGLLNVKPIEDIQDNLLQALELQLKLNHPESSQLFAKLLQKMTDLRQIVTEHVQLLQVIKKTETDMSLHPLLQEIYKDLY
The experiment in a line: PPARγ transactivation assay. The test is classed as cell-based. Conditions: concentrations as high as 20 μM. Here is the method: as §1

A further test has as its target T3, PPARβ/δ (Homo sapiens, UniProt Q03181).
T3 construct: expressed in transfected cells
T3 sequence (Q03181 1-441): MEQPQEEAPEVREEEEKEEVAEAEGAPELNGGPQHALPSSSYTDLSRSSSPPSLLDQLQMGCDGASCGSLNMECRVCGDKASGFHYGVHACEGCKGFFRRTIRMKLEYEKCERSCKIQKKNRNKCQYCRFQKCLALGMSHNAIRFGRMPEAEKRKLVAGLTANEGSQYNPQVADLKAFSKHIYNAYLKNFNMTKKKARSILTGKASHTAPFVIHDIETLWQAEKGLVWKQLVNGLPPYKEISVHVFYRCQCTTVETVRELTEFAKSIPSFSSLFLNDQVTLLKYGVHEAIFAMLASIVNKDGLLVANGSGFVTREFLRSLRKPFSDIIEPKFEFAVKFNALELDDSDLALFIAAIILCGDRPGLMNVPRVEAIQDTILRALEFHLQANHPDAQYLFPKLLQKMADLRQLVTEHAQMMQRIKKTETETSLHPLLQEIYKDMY
Kind of test: PPARβ/δ transactivation assay. Conditions: concentrations as high as 20 μM. The test is classed as cell-based. Here is the method:
as §1

Structures are written as SMILES.

`CCCCCCCCCCCCCCCC(=O)NCCO` [PEA, palmitoylethanolamide]: the EC50 at human PPARα came to 3 µM. Also, in the test on mice, the “carrageenan paw edema in wild-type mice” value was “decreased edema”. Also, the PPARγ activation entry at PPARγ was “did not activate”. Moreover, the PPARβ/δ activation result on PPARβ/δ is reported as “did not activate”.
